pEC50: −log10 of the molar value.
Test system: LXRα and/or LXRβ
Assay: Co-transfection assay (LXRE luciferase reporter, CV-1 cells)
Assay type: cell-based, human
Settings: for IC50 or EC50 (potency, activation or inhibition): tested as described in Example 33, IC50 or EC50 for LXRα and/or LXRβ, isoform not specified, read-out: activity (IC50 or EC50 for LXR)
In short: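 CV-1 cells transiently co-transfected with full-length human LXRα or LXRβ plus RXRα, an LXRE×1-Tk-luciferase reporter and a β-galactosidase control. Compounds incubated 20 h at 37 °C (≤1% DMSO; screen at 10 μM final); luciferase read after lysis. EC50/IC50 from 8-point half-log curves (4 wells per point, ≥3 experiments); efficacy relative to a reference agonist high control and DMSO.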

| Compound | IC50 or EC50 (potency, activation or inhibition) [µM] | pEC50 (read-out: activity (IC50 or EC50 for LXR), tested as described in Example 33, isoform not specified) |
| --- | --- | --- |
| Cc1cc(-c2ccc(CO)c(S(C)(=O)=O)c2)ccc1-n1cc(C(C)(C)O)nc1-c1ccccc1C(F)(F)F [Example 171] | < 1 |  |
| Cc1cccc(Cl)c1-c1nc(C(C)(C)O)cn1-c1ccc(-c2ccc(CO)c(S(C)(=O)=O)c2)cc1Cl [Example 155, 2-(1-(3-chloro-4′-(hydroxy-methyl)-3′-(methylsulfonyl)biphenyl-4-yl)-2-(2-chloro-6-methylphenyl)-1H-imidazol-4-yl)propan-2-ol] | < 1 |  |
| CCS(=O)(=O)c1cccc(-c2ccc(-n3cc(C(C)(C)O)nc3-c3c(F)cccc3F)c(Cl)c2)c1 [Example 158, 2-(1-(3-chloro-3′-(ethyl-sulfonyl)biphenyl-4-yl)-2-(2,6-difluorophenyl)-1H-imidazol-4-yl)propan-2-ol] | < 1 |  |
| CCS(=O)(=O)c1cccc(-c2ccc(-n3cc(C(C)(C)O)nc3C(C)(C)c3cccc(Cl)c3Cl)cc2)c1 [Example 22, 2-(2-(2-(2,3-dichloro-phenyl)propan-2-yl)-1-(3′-(ethylsulfonyl)biphenyl-4-yl)-1H-imidazol-4-yl)propan-2-ol] |  | > 6.00 |
| Cc1c(Cl)cccc1-c1nc(C(C)(C)O)cn1-c1ccc(-c2ccc(CO)c(S(C)(=O)=O)c2)cc1Cl [Example 160, 2-(2-(3-chloro-2-methylphenyl)-1-(3-chloro-4′-(hydroxymethyl)-3′-(methylsulfonyl)biphenyl-4-yl)-1H-imidazol-4-yl)propan-2-ol] | < 1 |  |
| Cc1cc(-c2cccc(S(C)(=O)=O)c2)ccc1-n1cc(C(C)(C)O)nc1-c1cccc(F)c1Cl [Example 185, 2-(2-(2-chloro-3-fluorophenyl)-1-(3-methyl-3′-(methylsulfonyl)biphenyl-4-yl)-1H-imidazol-4-yl)propan-2-ol] | < 1 |  |
| CCS(=O)(=O)c1cccc(-c2ccc(-n3cc(C(C)(C)O)nc3-c3cccc(Cl)c3Cl)c(C)c2)c1 [Example 180, 2-(2-(2,3-dichlorophenyl)-1-(3′-(ethylsulfonyl)-3-methylbiphenyl-4-yl)-1H-imidazol-4-yl)propan-2-ol] | < 1 |  |
| Cc1cc(-c2cccc(S(C)(=O)=O)c2)ccc1-c1nc(C(C)(C)O)cn1-c1c(C)cccc1C(C)C [Example 59, 2-(1-(2-isopropyl-6-methylphenyl)-2-(3-methyl-3′-(methylsulfonyl)biphenyl-4-yl)-1H-imidazol-4-yl)propan-2-ol] | < 1 |  |
| CS(=O)(=O)c1cccc(-c2ccc(-n3cc(C(=S)NCC(F)(F)F)nc3-c3ccccc3Cl)cc2)c1 [Example 398, 2-(2-chlorophenyl)-1-[3′-(methyl-sulfonyl)biphenyl-4-yl]-N-(2,2,2-trifluoroethyl)-1H-imidazole-4-carbothioamide] | < 1 |  |
| CS(=O)(=O)c1cccc(-c2ccc(-n3cc(C(F)(F)F)nc3-c3ccccc3Cl)nc2)c1 [Example 370, 2-[2-(2-chlorophenyl)-4-(trifluoro-methyl)-1H-imidazol-1-yl]-5-[3-(methylsulfonyl)phenyl]pyridine] | < 1 |  |
| CCS(=O)(=O)c1cccc(-c2ccc(-n3cc(C(C)(C)O)nc3-c3c(F)cccc3Cl)c(Cl)c2)c1 [Example 146, 2-(1-(3-chloro-3′-(ethyl-sulfonyl)biphenyl-4-yl)-2-(2-chloro-6-fluorophenyl)-1H-imidazol-4-yl)propan-2-ol] | < 1 |  |
| CC(C)(O)c1cccc(-c2ccc(-n3cc(C(C)(C)O)nc3-c3ccccc3Cl)cc2)c1 [Example 409, 2-{2-(2-chlorophenyl)-1-[3′-(1-hydroxy-1-methylethyl)biphenyl-4-yl]-1H-imidazol-4-yl}propan-2-ol] | 1 to 10 |  |
| CN1CCN(C(=O)c2cn(-c3ccc(-c4cccc(S(C)(=O)=O)c4)cc3)c(-c3c(Cl)cccc3Cl)n2)CC1 [Example 83, (2-(2,6-dichlorophenyl)-1-(3′-(methylsulfonyl)biphenyl-4-yl)-1H-imidazol-4-yl)(4-methylpiperazin-1-yl)methanone] | 1 to 10 |  |
| CCOC(=O)c1cn(-c2ccc(Br)cc2)c(-c2ccccc2Cl)n1 [Example 377, ethyl 1-(4-bromophenyl)-2-(2-chlorophenyl)-1H-imidazole-4-carboxylate] | 1 to 10 |  |
| CC(C)(O)c1cn(-c2ccc(-c3ccc(CO)c(S(C)(=O)=O)c3)cc2Cl)c(-c2c(Cl)cccc2Cl)n1 [Example 149, 2-(1-(3-chloro-4′-(hydroxymethyl)-3′-(methylsulfonyl)biphenyl-4-yl)-2-(2,6-dichlorophenyl)-1H-imidazol-4-yl)propan-2-ol] | < 1 |  |
| CS(=O)(=O)c1cccc(-c2ccc(-c3[nH]c(C(F)(F)F)nc3-c3ccccc3Cl)cc2)c1 [Example 359, 4-(2-chlorophenyl)-5-[3′-(methyl-sulfonyl)biphenyl-4-yl]-2-(trifluoro-methyl)-1H-imidazole] | < 1 |  |
| CCS(=O)(=O)c1cccc(-c2ccc(-n3cc(C(C)(C)O)nc3-c3c(F)cccc3F)c(C)c2)c1 [Example 194, 2-(2-(2,6-difluorophenyl)-1-(3′-(ethylsulfonyl)-3-methylbiphenyl-4-yl)-1H-imidazol-4-yl)propan-2-ol] | < 1 |  |
| Cc1cc(-c2cccc(S(C)(=O)=O)c2)ccc1-c1nc(C(C)(C)O)cn1-c1c(Cl)cccc1Cl [Example 197, 2-(1-(2,6-dichlorophenyl)-2-(3-methyl-3′-(methylsulfonyl)biphenyl-4-yl)-1H-imidazol-4-yl)propan-2-ol] | < 1 |  |

Second part, led by results:

| IC50 or EC50 (potency, activation or inhibition) [µM] | Compound | pEC50 (read-out: activity (IC50 or EC50 for LXR), tested as described in Example 33, isoform not specified) |
| --- | --- | --- |
| 1 to 10 | CC(C)(O)c1cn(-c2c(Cl)cccc2Cl)c(-c2ccc(-c3cccc(S(C)(=O)=O)c3)s2)n1 [Example 44, 2-(1-(2,6-dichlorophenyl)-2-(5-(3-(methylsulfonyl)phenyl)thiophen-2-yl)-1H-imidazol-4-yl)propan-2-ol] |  |
| < 1 | CC(C)(O)c1cn(-c2ccc(-c3cccc(S(C)(=O)=O)c3)cc2)c(-c2cccc(C(F)(F)F)c2)n1 [Example 392, 2-{1-[3′-(methylsulfonyl)biphenyl-4-yl]-2-[3-(trifluoromethyl)phenyl]-1H-imidazol-4-yl}propan-2-ol] |  |
| < 1 | CC(C)(O)c1cn(-c2ccc(-c3cccc(S(C)(=O)=O)c3)cc2F)c(-c2ccccc2Cl)n1 [Example 386, 2-{2-(2-chlorophenyl)-1-[3-fluoro-3′-(methylsulfonyl)biphenyl-4-yl]-1H-imidazol-4-yl}propan-2-ol] |  |
| < 1 | Cc1cccc(Cl)c1-c1nc(C(C)(C)O)cn1-c1ccc(-c2ccc(CO)c(S(C)(=O)=O)c2)cc1 [Example 102, 2-(2-(2-chloro-6-methylphenyl)-1-(4′-(hydroxymethyl)-3′-(methyl-sulfonyl)biphenyl-4-yl)-1H-imidazol-4-yl)propan-2-ol] |  |
| < 1 | CC(C)S(=O)(=O)c1cccc(-c2ccc(-n3cc(C(C)(C)O)nc3-c3ccccc3C(F)(F)F)cc2)c1 [Example 413] |  |
| < 1 | CCS(=O)(=O)c1cccc(-c2ccc(-n3cc(C(C)(C)O)nc3-c3ccccc3C(F)(F)F)cc2F)c1 [Example 112, 2-(1-(3′-(ethylsulfonyl)-2-fluoro-biphenyl-4-yl)-2-(2-(trifluoro-methyl)phenyl)-1H-imidazol-4-yl)propan-2-ol] |  |
| 1 to 10 | CC(C)(O)c1cn(-c2ccc(-c3cccc(S(C)(=O)=O)c3)cc2)c(-c2c(F)cccc2F)n1 [Example 410, 2-{2-(2,6-difluorophenyl)-1-[3′-(methylsulfonyl)biphenyl-4-yl]-1H-imidazol-4-yl}propan-2-ol] |  |
| < 1 | CS(=O)(=O)c1cccc(-c2ccc(-n3cc(C(=O)NCC(F)(F)F)nc3-c3c(Cl)cccc3Cl)c(Cl)c2)c1 [Example 459, 1-(3-chloro-3′-(methyl-sulfonyl)biphenyl-4-yl)-2-(2,6-dichlorophenyl)-N-(2,2,2-trifluoro-ethyl)-1H-imidazole-4-carboxamide] |  |
| < 1 | Cc1cc(-c2ccc(CO)c(S(C)(=O)=O)c2)ccc1-n1cc(C(C)(C)O)nc1-c1c(Cl)cccc1Cl [Example 174, 2-(2-(2,6-dichlorophenyl)-1-(4′-(hydroxymethyl)-3-methyl-3′-(methylsulfonyl)biphenyl-4-yl)-1H-imidazol-4-yl)propan-2-ol] |  |
| < 1 | C/C(=N\O)c1cn(-c2ccc(-c3cccc(S(C)(=O)=O)c3)cc2)c(-c2ccccc2Cl)n1 [Example 408, 1-{2-(2-chlorophenyl)-1-[3′-(methylsulfonyl)biphenyl-4-yl]-1H-imidazol-4-yl}ethanone oxime] |  |
| < 1 | Cc1cc(-c2cccc(S(C)(=O)=O)c2)ccc1-n1cc(C(C)(C)O)nc1-c1ccccc1Cl [Example 418, 2-{2-(2-chlorophenyl)-1-[3-methyl-3′-(methylsulfonyl)biphenyl-4-yl]-1H-imidazol-4-yl}propan-2-ol] |  |
| < 1 | CS(=O)(=O)c1cccc(-c2ccc(-n3cc(C(F)(F)F)nc3-c3ccccc3Cl)cc2)c1 [Example 358, 2-(2-chlorophenyl)-1-[3′-(methyl-sulfonyl)biphenyl-4-yl]-4-(trifluoro-methyl)-1H-imidazole] |  |
| < 1 | Cc1cccc(Cl)c1-c1nc(C(C)(C)O)cn1-c1ccc(-c2cccc(S(C)(=O)=O)c2)cc1Cl [Example 156, 2-(1-(3-chloro-3′-(methyl-sulfonyl)biphenyl-4-yl)-2-(2-chloro-6-methylphenyl)-1H-imidazol-4-yl)propan-2-ol] |  |
